Reference: US11242346B2, “Mechanistic target of rapamycin signaling pathway inhibitors and therapeutic applications thereof” (SUZHOU KINTOR PHARMACEUTICALS, INC., priority 2016, dated 2022)
Each block holds one molecule with its values, some of them ahead of it.

Tests used:
[1] = Metabolic stability in human liver microsome (HLM); assay type: in vitro ADME; settings: incubation with human liver microsome for 60 min
Experimental: (§1) Active mTOR inhibitors in enzymatic and/or cell-based assays herein were evaluated for pharmacokinetic properties. Preferable compounds are with pharmacokinetic properties of low clearance, long half-life and/or good oral bioavailability (Fpo). In vitro, selected example compounds were evaluated for metabolic stability by incubating with human liver microsome (HLM) for 60 min. Compounds that were metabolized slower (i.e. higher % remaining) are preferred. […] The more metabolic stable example compounds in the HLM assay were further evaluated for pharmacokinetic properties in vivo. In a representative experiment, selected example compounds were dosed to rats intravenously (IV, 5 mg/kg, 30% PEG400+30% PG+1% DMSO in saline) and orally (PO, 10 mg/kg, 2.4% DMSO+0.1% Tween80 in 0.5% CMC-Na), rat blood samples were taken at designed time points after dosing and analyzed for tested drug concentrations using LC-MS/MS. Pharmacokinetic parameters were derived from the time curve of drug concentrations.

[2] = Rat pharmacokinetic study (IV and PO); assay type: in vivo; settings: for bioavailability: PO 10 mg/kg vs IV 5 mg/kg, read-out: Fpo (oral bioavailability)
Experimental: as §1

mTOR (FRAP1) = mTOR (FRAP1) (Homo sapiens, UniProt P42345); experiment: SelectScreen Profiling, Z'-LYTE kinase assay, mTOR (FRAP1); assay type: biochemical; settings: 0.1 μM compound, ATP at Km, read-out: mTOR inh% @0.1 μM
Text: (§2) Some of the example compounds were submitted to Life Technologies Corporation SelectScreen® Profiling Service to test their potency in inhibiting the kinase catalytic activities of mTOR, PI3Kα, VEGF2, FGFR1, HER1 (EGFR) and HER2. A concentration of ATP at the Km of the corresponding kinase was used for all assays. The mTOR (FRAP1), VEGF2, FGFR1, HER1 (EGFR) and HER2 assays used Z′-LYTE® technology. The PI3Kα assay used Adapta® technology. The symbol “inh %” as used herein generally refers to inhibition percentage.

PI3Kα = PI3Kα (Homo sapiens, UniProt P42336); experiment: SelectScreen Profiling, Adapta kinase assay, PI3Kα; assay type: biochemical; settings: 0.1 μM compound, ATP at Km, read-out: PI3Kα inh % @0.1 μM
[3] = system: mammalian tumor cell lines such as PC-3, LNCAP, U87, Huh-7, HepG2 and MDA-MB-468; experiment: Cell proliferation/survival MTT assay in tumor cell lines; assay type: cell-based; settings: 5 days (120 h) culture; cell line not specified; read-out: IC50, inhibition of tumor cell growth (MTT)
Experimental: The cytotoxic or cytostatic activity of Formula I-III exemplary compounds was measured by establishing proliferating mammalian tumor cell lines such as PC-3, LNCAP, U87, Huh-7, HepG2 and MDA-MB-468 in a cell culture medium, adding a test compound, culturing the cells for a period of 5 days by measuring cell viability via MTT assays. Dose response data were obtained for each test compound and the degree of inhibition of tumor cell growth was expressed as an IC50 value. […] For example. For example, compounds of example 14, 15, 46,29, 45, 49, 122, 88, 54, 55, 58, 59, 63, 64, 66, 67, 68, 113, 86, 90.
PC-3 (or U87) cells were seeded in 96-well plates at low density (at 2,000 cells per well) in media supplemented with 10% FBS (growth media) and transferred to serum-free media (1% FBS) after 24 h. Designated concentrations of drug were added to each well. The cells were incubated for 120 h. At the end of drug exposure, 20 μL/well of MTT solution was added. After 4 h at 37° C. in a humidified 5% CO2 atmosphere, the absorbance at 490 nm was recorded by using a microplate reader. IC50 was calculated using GraphPad Prism version 5 for Windows. The curves were fit using a nonlinear regression model with a log (inhibitor) versus response formula.

VEGF2 = VEGF2 (Homo sapiens, UniProt P35968); experiment: SelectScreen Profiling, Z'-LYTE kinase assay, VEGF2; assay type: biochemical; settings: 1 μM compound, ATP at Km, read-out: VEGF 2 inh % @1 μM
Sequence of VEGF2 (P35968 20-1356): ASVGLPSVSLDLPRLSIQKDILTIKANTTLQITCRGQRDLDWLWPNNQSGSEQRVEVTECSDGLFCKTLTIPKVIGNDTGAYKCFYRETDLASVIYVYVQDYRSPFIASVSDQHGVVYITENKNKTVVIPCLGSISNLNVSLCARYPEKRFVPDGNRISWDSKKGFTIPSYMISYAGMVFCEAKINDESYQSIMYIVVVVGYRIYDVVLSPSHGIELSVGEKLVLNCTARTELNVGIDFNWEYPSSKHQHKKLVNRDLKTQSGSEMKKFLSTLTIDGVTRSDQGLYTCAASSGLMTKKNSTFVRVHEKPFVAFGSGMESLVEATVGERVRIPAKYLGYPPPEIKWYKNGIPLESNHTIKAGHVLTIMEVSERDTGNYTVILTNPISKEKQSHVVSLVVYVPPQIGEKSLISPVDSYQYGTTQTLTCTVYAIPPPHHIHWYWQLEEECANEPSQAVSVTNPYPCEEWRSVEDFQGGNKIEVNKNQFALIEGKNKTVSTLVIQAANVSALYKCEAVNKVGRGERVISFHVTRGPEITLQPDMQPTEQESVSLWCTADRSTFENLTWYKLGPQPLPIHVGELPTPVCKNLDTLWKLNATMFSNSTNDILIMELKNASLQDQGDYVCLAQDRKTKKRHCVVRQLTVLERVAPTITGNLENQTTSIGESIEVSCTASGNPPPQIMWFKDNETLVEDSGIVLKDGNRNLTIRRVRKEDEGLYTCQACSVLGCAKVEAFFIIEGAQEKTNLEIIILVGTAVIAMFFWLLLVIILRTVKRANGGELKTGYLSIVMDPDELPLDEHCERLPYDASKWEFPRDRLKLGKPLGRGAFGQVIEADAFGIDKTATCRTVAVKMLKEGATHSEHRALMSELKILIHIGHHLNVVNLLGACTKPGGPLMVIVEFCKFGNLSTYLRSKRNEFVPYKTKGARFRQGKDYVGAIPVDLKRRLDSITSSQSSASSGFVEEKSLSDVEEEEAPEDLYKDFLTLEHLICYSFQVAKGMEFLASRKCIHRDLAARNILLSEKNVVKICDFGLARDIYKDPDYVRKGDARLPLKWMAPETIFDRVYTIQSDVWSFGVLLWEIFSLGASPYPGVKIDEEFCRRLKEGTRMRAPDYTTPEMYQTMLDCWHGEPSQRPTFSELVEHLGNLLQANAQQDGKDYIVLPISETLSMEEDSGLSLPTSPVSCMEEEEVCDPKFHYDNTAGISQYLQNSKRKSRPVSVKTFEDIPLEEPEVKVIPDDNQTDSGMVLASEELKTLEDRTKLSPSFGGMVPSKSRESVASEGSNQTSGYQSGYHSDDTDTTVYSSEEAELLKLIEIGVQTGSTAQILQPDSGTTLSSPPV
Text: as §2

FGFR1 = FGFR1 (Homo sapiens, UniProt P11362); experiment: SelectScreen Profiling, Z'-LYTE kinase assay, FGFR1; assay type: biochemical; settings: 1 μM compound, ATP at Km, read-out: FGFR 1 inh % @1 μM
Sequence of FGFR1 (P11362 22-822): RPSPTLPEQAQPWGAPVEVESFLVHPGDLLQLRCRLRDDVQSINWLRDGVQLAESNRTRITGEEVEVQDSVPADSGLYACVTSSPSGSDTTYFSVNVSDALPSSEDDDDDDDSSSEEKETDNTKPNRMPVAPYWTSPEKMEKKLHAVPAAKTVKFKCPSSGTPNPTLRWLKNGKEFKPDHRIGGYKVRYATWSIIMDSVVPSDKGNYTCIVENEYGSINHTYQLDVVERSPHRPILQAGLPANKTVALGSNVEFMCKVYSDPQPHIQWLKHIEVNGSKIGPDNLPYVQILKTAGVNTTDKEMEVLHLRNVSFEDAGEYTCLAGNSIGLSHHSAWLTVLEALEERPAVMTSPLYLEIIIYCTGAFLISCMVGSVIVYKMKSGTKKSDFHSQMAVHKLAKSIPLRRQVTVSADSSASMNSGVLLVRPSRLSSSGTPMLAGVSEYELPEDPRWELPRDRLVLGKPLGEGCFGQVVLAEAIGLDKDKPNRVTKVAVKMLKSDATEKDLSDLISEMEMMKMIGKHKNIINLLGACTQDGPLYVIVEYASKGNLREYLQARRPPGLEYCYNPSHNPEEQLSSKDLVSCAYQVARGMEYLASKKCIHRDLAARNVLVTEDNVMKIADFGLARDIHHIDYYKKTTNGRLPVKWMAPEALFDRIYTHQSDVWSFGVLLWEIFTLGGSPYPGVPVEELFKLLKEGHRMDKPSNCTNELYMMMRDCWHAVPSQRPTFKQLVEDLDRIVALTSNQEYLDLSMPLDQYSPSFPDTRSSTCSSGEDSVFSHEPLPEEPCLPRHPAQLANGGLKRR
Text: as §2

HER1 (EGFR) = HER1 (EGFR) (Homo sapiens, UniProt P00533); experiment: SelectScreen Profiling, Z'-LYTE kinase assay, HER1 (EGFR); assay type: biochemical; settings: 1 μM compound, ATP at Km, read-out: HER1 inh % @1 μM
Sequence of HER1 (EGFR) (P00533 25-1210): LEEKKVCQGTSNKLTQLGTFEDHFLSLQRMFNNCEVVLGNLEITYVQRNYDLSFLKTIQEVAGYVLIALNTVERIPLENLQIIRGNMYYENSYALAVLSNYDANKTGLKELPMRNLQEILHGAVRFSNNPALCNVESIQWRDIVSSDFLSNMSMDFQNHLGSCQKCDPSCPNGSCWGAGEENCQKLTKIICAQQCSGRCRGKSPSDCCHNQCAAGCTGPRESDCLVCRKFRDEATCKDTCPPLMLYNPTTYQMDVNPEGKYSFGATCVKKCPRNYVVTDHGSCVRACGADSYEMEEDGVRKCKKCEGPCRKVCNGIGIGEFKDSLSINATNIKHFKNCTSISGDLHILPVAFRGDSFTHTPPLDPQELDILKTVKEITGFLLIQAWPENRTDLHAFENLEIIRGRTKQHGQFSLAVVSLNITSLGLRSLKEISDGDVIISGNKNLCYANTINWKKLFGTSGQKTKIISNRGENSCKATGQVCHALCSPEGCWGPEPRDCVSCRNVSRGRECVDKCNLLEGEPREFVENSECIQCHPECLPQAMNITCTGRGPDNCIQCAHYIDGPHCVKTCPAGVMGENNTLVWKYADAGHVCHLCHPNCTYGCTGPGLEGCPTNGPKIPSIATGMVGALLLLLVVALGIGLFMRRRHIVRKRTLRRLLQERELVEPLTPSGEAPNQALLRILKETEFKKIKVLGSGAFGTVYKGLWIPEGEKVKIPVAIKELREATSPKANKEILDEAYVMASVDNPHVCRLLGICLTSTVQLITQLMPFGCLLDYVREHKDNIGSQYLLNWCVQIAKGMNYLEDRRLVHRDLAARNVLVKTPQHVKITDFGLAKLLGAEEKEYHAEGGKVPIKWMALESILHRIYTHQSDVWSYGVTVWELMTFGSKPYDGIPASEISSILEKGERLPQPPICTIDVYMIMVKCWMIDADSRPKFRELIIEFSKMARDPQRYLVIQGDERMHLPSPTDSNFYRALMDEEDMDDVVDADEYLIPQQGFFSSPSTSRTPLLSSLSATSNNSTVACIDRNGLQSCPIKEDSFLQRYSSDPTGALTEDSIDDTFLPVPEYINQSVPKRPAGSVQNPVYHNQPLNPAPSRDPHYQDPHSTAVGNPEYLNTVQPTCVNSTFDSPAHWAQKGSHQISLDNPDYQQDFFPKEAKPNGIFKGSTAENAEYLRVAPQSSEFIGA
Text: as §2

HER2 = HER2 (Homo sapiens, UniProt P04626); experiment: SelectScreen Profiling, Z'-LYTE kinase assay, HER2; assay type: biochemical; settings: 1 μM compound, ATP at Km, read-out: HER2 inh % @1 μM
Sequence of HER2 (P04626 23-1255): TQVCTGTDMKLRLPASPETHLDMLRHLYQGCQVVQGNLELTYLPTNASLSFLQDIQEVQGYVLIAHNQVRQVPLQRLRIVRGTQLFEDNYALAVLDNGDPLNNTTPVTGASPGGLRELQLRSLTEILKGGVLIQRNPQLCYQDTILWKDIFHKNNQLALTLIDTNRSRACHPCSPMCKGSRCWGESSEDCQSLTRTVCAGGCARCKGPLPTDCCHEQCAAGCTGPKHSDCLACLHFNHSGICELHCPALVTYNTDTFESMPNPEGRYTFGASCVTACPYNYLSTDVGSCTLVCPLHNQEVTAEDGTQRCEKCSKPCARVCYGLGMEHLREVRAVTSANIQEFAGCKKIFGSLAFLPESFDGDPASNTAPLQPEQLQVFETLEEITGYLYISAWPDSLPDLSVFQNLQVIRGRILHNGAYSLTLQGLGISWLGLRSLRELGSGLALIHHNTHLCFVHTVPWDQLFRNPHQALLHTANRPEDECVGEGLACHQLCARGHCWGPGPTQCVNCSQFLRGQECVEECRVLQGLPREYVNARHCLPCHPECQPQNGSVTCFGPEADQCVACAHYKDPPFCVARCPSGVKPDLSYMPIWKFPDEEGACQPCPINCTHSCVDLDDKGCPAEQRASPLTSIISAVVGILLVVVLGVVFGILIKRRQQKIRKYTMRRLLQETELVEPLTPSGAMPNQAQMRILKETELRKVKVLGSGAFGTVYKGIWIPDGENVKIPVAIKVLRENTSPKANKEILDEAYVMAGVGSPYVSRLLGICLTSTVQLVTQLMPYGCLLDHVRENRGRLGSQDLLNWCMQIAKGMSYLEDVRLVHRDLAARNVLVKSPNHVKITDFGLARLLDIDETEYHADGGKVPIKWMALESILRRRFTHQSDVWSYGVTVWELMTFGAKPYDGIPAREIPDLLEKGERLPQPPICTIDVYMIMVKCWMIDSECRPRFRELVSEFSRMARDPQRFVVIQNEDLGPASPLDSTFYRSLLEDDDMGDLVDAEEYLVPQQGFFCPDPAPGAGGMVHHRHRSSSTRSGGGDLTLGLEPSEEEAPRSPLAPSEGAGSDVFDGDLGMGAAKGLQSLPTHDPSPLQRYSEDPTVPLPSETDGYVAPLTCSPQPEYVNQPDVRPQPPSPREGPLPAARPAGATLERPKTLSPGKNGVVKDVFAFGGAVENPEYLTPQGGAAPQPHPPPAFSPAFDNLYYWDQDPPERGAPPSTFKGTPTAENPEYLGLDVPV
Text: as §2

SMILES: O=C(Nc1ccc(-c2nc(N3CCOCC3)c3cccn3n2)cc1)NC1CC1 [Example 38]
- inhibition at 0.1 µM (mTOR (FRAP1)): 69%
- inhibition at 0.1 µM (PI3Kα): -8%

SMILES: C[C@@H](CO)NC(=O)Nc1ccc(-c2nc(N3CCOCC3)c3cccn3n2)cc1 [Example 52]
- inhibition at 0.1 µM (mTOR (FRAP1)): 74%
- inhibition at 0.1 µM (PI3Kα): 6%

SMILES: C[C@@H]1COCCN1c1nc(-c2ccc(NC(=O)Nc3ccc(C(=O)N4CC[C@@H](O)C4)cc3)cc2)nn2cccc12 [Example 88]
- IC50 [3]: < 500 nM

SMILES: C[C@@H]1COCCN1c1nc(-c2ccc(NC(=O)Nc3ccc(C(=O)N4CC[C@H](O)C4)cc3)cc2)nn2cccc12 [Example 89]
- metabolic stability in HLM [1]: metabolically stable

SMILES: O=C(Nc1ccc(C(=O)N2CCC(O)CC2)cc1)Nc1ccc(-c2nc(N3CCOCC3)c3cccn3n2)cc1 [Example 55]
- inhibition at 0.1 µM (mTOR (FRAP1)): 90%
- inhibition at 1 µM (VEGF2): 11%
- inhibition at 1 µM (FGFR1): -1%
- inhibition at 1 µM (HER1 (EGFR)): 0%
- inhibition at 1 µM (HER2): 5%
- IC50 [3]: < 500 nM
- metabolic stability in HLM [1]: metabolically stable

SMILES: OCCNC(=S)Nc1ccc(-c2nc(N3CCOCC3)c3cccn3n2)cc1 [Example 113]
- IC50 [3]: < 500 nM

SMILES: O=C(Nc1ccc(C(=O)NCCN2CCOCC2)cc1)Nc1ccc(-c2nc(N3CCOCC3)c3cccn3n2)cc1 [Example 48]
- inhibition at 0.1 µM (mTOR (FRAP1)): 69%
- inhibition at 0.1 µM (PI3Kα): -15%

SMILES: CN(C)CCCNC(=O)c1ccc(NC(=O)Nc2ccc(-c3nc(N4CCOCC4)c4cccn4n3)cc2)cc1 [Example 47]
- inhibition at 0.1 µM (mTOR (FRAP1)): 89%
- inhibition at 1 µM (VEGF2): 10%
- inhibition at 1 µM (FGFR1): 6%
- inhibition at 1 µM (HER1 (EGFR)): 1%
- inhibition at 1 µM (HER2): -5%

SMILES: CC(C)(O)c1ccc2c(N3CCOCC3)nc(-c3ccc(NC(=O)Nc4cccnc4)cc3)nn12 [Example 63]
- inhibition at 0.1 µM (mTOR (FRAP1)): 71%
- IC50 [3]: < 500 nM

The next lines start with results.

- metabolic stability in HLM [1]: metabolically stable
- CL ([2]; PO 10 mg/kg): 4.12 mL/min/kg
- AUC(0-t) ([2]; blood, IV 5 mg/kg): 41500 ng·h/mL
- Cmax ([2]; blood, IV 5 mg/kg): 21200 ng/mL
- MRT ([2]; blood, IV 5 mg/kg): 1.67 h
- clearance ([2]; blood, IV 5 mg/kg): 2.03 mL/min/kg
- half-life ([2]; blood, IV 5 mg/kg): 1.42 h
- AUC(0-t) ([2]; blood, PO 10 mg/kg): 73400 ng·h/mL
- Cmax ([2]; blood, PO 10 mg/kg): 9990 ng/mL
- MRT ([2]; blood, PO 10 mg/kg): 5.68 h
- Tmax ([2]; blood, PO 10 mg/kg): 2.5 h
- half-life ([2]; blood, PO 10 mg/kg): 3.26 h
- bioavailability ([2]; blood): 89%
SMILES: S=C(Nc1ccc(-c2nc(N3CCOCC3)c3cccn3n2)cc1)Nc1cccnc1 [Example 106]

- CL ([2]; PO 10 mg/kg): 25.05 mL/min/kg
- AUC(0-t) ([2]; blood, PO 10 mg/kg): 7290 ng·h/mL
- Cmax ([2]; blood, PO 10 mg/kg): 1520 ng/mL
- MRT ([2]; blood, PO 10 mg/kg): 3.45 h
- Tmax ([2]; blood, PO 10 mg/kg): 1.67 h
- half-life ([2]; blood, PO 10 mg/kg): 1.9 h
- bioavailability ([2]; blood): 22%
SMILES: CC(C)(C)C(=O)OCCNC(=O)Nc1ccc(-c2nc(N3CCOCC3)c3cccn3n2)cc1 [Example 128]

- inhibition at 0.1 µM (mTOR (FRAP1)): 88%
- metabolic stability in HLM [1]: metabolically stable
SMILES: O=C(Nc1ccc(C(=O)N2CCNCC2)cc1)Nc1ccc(-c2nc(N3CCOCC3)c3cccn3n2)cc1 [Example 56]

- inhibition at 0.1 µM (mTOR (FRAP1)): 95%
- inhibition at 1 µM (VEGF2): 7%
- inhibition at 1 µM (FGFR1): -4%
- inhibition at 1 µM (HER1 (EGFR)): -1%
- inhibition at 1 µM (HER2): 4%
SMILES: O=C(Nc1ccc(C(=O)N2CC(O)C2)cc1)Nc1ccc(-c2nc(N3CCOCC3)c3cccn3n2)cc1 [Example 54]
- IC50 [3]: < 500 nM

- inhibition at 0.1 µM (mTOR (FRAP1)): 63%
- inhibition at 0.1 µM (PI3Kα): 19%
SMILES: CN1CCN(C(=O)c2ccc(NC(=O)Nc3ccc(-c4nc(N5CCOCC5)c5ccc(C(F)(F)F)n5n4)cc3)cc2)CC1 [Example 65]

- inhibition at 0.1 µM (mTOR (FRAP1)): 86%
SMILES: O=C(Nc1ccc(C(=O)N2CC[C@H](O)C2)cc1)Nc1ccc(-c2nc(N3CCOCC3)c3cccn3n2)cc1 [Example 68]
- IC50 [3]: < 500 nM

- inhibition at 0.1 µM (mTOR (FRAP1)): 87%
- metabolic stability in HLM [1]: metabolically stable
SMILES: O=C(Nc1ccc(C(=O)N2CC[C@@H](O)C2)cc1)Nc1ccc(-c2nc(N3CCOCC3)c3cccn3n2)cc1 [Example 67]
- IC50 [3]: < 500 nM
